PMC5972561, “Grapevine fatty acid hydroperoxide lyase generates actin-disrupting volatiles and promotes defence-related cell death” (Journal of Experimental Botany, 2018)

Molecular target: T1, VvHPL1 (VvMTh-HPL1; HPL1) (Vitis vinifera, UniProt F6HID6)
T1 sequence (F6HID6 1-487): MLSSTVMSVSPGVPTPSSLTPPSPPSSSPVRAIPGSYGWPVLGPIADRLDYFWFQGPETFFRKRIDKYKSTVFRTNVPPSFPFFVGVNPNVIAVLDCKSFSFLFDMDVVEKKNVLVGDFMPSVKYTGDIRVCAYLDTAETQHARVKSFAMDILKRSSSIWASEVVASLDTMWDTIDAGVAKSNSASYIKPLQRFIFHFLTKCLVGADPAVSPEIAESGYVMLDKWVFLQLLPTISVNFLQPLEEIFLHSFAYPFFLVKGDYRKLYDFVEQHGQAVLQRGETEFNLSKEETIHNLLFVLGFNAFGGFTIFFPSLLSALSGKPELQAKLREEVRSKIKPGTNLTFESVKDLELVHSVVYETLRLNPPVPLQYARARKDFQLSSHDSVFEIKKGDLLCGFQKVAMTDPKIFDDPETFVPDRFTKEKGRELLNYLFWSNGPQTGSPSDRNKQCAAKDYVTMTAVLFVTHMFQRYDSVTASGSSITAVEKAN
Test: SBSE TD-GC-MS of volatile products
Assay type: biochemical
Conditions: 40 µM substrate, 50 mM sodium phosphate pH 7.0, ambient temperature, 2 h; enzyme partially purified

| SMILES | SBSE TD-GC-MS of volatile products |
| --- | --- |
| CCCCC[C@@H](/C=C/C=C\CCCCCCCC(=O)O)OO [13(S)-hydroperoxy-9(Z), 11(E)-octadecadienoic acid] | The major product from the conversion of 13-HPOD was hexanal |
| CC/C=C\C[C@@H](/C=C/C=C\CCCCCCCC(=O)O)OO [13(S)-hydroperoxy-9(Z),11(E), 15(Z)-octadecatrienoic acid] | 13-HPOT as substrate yielded cis-3-hexenal and trans-2-hexenal |
